Values quoted from earlier work in patent US10472401B2, “Peptides and combination of peptides for use in immunotherapy against ovarian cancer and other cancers” (immatics biotechnologies GmbH, priority 2015, dated 2019).

Columns and labels:
[1] = target: T1, PLA2G6 (Homo sapiens, UniProt O60733); details: cited from earlier work
T1 construct: host or cells: ovarian cancer cells
T1 sequence (O60733 1-806): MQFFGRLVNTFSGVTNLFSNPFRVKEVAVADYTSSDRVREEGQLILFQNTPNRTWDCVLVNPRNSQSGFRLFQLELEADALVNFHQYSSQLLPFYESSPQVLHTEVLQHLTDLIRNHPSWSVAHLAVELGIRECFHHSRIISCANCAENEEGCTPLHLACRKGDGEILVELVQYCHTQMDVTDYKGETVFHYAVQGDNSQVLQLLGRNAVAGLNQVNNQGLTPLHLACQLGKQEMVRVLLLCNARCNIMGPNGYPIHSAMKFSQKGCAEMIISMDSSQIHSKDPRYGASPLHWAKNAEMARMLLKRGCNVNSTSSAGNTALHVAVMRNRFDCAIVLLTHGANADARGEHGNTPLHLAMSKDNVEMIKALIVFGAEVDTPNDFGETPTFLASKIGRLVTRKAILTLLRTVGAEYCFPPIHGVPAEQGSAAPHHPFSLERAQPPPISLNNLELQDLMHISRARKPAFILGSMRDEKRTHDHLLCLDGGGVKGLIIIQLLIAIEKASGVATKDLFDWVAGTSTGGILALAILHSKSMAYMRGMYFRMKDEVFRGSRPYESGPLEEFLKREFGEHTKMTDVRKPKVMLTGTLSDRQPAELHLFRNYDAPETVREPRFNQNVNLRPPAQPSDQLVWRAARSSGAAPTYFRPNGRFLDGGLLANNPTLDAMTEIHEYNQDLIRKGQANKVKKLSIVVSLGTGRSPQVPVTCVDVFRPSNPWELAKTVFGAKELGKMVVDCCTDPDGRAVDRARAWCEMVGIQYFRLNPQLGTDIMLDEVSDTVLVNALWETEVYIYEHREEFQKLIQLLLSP

[2] = tested on: human tumor cell lines; details: cited from earlier work
[3] = tested on: UBE2V1; details: cited from earlier work
[4] = target: ATR (Homo sapiens, UniProt Q13535); details: pancreatic cancer cells in vitro, pancreatic tumor xenografts in vivo; cited from earlier work
[5] = target: T2, IMPDH2 (Homo sapiens, UniProt P12268); details: patients with acute myeloid leukemia and chronic myeloid leukemia in blast crisis; cited from earlier work
T2 construct: host or cells: patients with AML and CML in blast crisis

[6] = tested on: lung tumorigenesis; details: TLE1 transgenic mice; cited from earlier work
[7] = target: T3, ALDH5A1 (Homo sapiens, UniProt P51649); details: cited from earlier work
T3 construct: host or cells: breast ductal carcinoma models
T3 sequence (P51649 48-535): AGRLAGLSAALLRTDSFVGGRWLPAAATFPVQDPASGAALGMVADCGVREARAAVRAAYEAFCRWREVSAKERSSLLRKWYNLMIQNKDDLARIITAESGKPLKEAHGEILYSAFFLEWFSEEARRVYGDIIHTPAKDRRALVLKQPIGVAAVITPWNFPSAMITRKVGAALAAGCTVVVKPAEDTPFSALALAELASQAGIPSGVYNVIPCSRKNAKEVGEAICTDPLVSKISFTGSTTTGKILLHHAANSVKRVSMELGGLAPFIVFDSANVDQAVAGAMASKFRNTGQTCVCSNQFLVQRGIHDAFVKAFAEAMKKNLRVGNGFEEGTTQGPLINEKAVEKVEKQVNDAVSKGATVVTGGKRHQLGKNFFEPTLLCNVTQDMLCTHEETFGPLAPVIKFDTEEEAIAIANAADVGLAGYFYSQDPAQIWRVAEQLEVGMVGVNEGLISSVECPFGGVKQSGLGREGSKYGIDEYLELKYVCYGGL

T2 sequence (P12268 2-514 limits assumed): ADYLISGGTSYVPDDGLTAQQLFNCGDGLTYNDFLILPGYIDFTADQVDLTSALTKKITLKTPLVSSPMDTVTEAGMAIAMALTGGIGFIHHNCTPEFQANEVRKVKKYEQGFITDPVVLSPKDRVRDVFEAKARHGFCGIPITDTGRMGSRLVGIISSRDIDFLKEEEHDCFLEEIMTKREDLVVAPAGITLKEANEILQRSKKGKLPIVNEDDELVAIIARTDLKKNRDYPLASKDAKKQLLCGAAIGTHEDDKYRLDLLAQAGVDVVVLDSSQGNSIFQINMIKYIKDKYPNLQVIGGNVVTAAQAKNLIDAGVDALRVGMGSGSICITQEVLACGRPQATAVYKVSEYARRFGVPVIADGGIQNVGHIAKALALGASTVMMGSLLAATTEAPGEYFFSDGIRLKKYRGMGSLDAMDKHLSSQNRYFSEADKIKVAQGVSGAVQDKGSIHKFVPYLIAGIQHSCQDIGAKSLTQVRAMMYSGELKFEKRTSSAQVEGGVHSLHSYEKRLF
Chain of ATR (Q13535 whole entry): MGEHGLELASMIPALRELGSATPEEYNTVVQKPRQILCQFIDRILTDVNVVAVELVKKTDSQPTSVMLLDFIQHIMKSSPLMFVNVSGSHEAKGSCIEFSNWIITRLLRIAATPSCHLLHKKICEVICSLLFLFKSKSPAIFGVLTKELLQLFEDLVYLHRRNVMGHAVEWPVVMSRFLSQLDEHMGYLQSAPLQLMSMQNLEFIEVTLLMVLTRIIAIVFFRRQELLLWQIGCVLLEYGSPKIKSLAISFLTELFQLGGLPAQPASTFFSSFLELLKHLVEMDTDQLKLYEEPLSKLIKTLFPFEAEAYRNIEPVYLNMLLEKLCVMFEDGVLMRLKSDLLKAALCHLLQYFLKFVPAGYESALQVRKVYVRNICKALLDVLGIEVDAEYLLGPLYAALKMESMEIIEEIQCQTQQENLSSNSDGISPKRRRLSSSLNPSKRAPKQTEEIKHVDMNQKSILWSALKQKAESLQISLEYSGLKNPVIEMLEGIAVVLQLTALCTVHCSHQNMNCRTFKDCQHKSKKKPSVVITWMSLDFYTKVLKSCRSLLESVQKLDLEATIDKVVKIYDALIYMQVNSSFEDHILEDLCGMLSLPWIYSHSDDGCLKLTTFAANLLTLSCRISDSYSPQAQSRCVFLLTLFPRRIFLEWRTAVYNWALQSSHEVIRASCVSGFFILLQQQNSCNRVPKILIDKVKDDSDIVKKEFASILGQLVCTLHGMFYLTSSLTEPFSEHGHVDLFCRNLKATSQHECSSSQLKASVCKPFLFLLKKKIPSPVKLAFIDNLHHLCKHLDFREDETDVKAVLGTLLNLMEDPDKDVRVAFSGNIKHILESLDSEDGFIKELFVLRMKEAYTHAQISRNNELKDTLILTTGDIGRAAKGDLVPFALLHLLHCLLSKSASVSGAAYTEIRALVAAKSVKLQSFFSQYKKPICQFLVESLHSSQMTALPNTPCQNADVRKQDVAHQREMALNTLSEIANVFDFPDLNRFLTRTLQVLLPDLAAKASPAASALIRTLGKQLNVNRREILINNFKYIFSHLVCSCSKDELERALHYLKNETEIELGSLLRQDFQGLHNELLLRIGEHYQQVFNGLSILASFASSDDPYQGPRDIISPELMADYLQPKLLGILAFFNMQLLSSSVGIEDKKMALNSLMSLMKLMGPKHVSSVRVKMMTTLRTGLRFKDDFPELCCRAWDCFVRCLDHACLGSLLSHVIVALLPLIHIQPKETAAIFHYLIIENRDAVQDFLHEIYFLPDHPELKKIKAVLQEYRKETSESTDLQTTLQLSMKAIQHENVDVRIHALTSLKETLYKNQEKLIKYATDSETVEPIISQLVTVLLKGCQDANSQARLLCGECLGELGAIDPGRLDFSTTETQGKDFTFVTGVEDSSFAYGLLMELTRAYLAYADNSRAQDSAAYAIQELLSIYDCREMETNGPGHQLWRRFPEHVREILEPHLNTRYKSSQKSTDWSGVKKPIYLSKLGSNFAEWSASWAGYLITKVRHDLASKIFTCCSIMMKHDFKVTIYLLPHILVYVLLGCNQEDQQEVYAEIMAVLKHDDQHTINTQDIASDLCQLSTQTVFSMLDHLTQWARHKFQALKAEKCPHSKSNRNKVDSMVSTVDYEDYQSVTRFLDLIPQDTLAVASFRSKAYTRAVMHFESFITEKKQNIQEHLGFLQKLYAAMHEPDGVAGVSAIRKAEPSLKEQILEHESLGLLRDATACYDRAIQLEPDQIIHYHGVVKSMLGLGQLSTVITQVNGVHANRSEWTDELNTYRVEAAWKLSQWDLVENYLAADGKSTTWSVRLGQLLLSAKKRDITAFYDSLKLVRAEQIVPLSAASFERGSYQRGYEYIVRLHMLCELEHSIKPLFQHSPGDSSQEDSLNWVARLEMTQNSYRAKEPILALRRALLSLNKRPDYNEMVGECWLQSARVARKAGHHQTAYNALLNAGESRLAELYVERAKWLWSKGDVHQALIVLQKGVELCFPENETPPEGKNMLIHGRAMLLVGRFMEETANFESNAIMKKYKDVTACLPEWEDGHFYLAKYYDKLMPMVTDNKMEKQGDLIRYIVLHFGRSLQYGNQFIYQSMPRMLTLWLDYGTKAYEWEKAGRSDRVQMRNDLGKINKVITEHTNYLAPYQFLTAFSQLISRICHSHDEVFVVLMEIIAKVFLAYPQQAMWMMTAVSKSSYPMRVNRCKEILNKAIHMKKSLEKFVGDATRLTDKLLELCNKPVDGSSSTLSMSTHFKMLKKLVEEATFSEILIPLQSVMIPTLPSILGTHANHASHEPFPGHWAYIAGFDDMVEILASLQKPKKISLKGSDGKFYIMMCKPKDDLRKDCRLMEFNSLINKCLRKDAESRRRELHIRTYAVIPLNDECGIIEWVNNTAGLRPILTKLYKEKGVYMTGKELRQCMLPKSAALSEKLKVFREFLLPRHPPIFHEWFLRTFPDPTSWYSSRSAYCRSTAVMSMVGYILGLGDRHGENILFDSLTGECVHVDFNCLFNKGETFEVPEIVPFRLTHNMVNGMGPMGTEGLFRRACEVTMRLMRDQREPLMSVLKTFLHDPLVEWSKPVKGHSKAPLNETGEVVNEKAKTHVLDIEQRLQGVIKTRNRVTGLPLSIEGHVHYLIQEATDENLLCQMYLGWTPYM
Chain of ATR (Q8WXE1 whole entry partner): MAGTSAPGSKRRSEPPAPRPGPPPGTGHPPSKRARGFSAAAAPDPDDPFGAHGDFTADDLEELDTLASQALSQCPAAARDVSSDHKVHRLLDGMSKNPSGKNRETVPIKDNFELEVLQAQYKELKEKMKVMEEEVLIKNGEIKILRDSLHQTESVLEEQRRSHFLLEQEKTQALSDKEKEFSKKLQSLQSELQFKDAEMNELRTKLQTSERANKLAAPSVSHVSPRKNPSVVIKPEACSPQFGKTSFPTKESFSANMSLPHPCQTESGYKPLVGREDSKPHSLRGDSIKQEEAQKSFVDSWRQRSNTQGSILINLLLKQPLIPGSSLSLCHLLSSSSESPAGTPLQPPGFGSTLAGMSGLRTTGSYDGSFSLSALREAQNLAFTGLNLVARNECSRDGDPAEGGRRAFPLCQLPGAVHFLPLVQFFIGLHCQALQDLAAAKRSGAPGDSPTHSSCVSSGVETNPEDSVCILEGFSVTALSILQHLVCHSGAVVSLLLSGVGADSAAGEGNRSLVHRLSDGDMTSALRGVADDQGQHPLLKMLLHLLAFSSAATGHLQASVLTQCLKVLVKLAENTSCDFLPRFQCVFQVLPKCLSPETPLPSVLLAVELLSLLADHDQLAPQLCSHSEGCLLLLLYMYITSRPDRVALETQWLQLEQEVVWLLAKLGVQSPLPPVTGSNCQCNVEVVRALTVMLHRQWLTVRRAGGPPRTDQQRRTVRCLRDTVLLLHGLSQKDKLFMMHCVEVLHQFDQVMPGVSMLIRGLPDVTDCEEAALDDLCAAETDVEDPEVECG

Structure (SMILES): O=C1O/C(=C/Br)CCC1c1cccc2ccccc12 (stereo not shown) [Bromoenol lactone]
- apoptosis and cell cycle of ovarian cancer cells [1]: increase in apoptosis in ovarian cancer cells as well as inducing cell cycle arrest in S- and G2/M-phases

Structure (SMILES): CN1CC[C@H](c2c(O)cc(O)c3c(=O)cc(-c4ccccc4Cl)oc23)[C@H](O)C1 [Flavopiridol]
- human tumor cell proliferation [2]: inhibition of human tumor cell proliferation

Structure (SMILES): Cc1ccc(S(=O)(=O)c2ccc([N+](=O)[O-])o2)cc1 [NSC697923]
- proliferation and survival of diffuse large B-cell lymphoma cells [3]: inhibit proliferation and survival of diffuse large B-cell lymphoma cells

Structure (SMILES): CNCc1ccc(-c2cc(-c3nc(-c4ccc(S(=O)(=O)C(C)C)cc4)cnc3N)on2)cc1 [VE-822]
- radiosensitization and chemosensitization [4]: radiosensitize and chemosensitize pancreatic cancer cells in vitro and pancreatic tumor xenografts in vivo

Structure (SMILES): NC(=O)c1csc([C@@H]2O[C@H](CO)[C@@H](O)[C@H]2O)n1 [tiazofurin]
- clinical response [5]: good clinical response

Structure (SMILES): CC(/C=C/C(=O)NO)=C\[C@@H](C)C(=O)c1ccc(N(C)C)cc1 [trichostatin A]
- lung tumorigenesis [6]: significantly inhibited lung tumorigenesis

Structure (SMILES): CCCC(CCC)C(=O)O [valproic acid]
- net proliferation of breast ductal carcinoma models [7]: inhibit net proliferation
